Patent US10174007B2, “Substituted 3-azabicyclo[3.1.0]hexanes as ketohexokinase inhibitors” (Pfizer Inc., priority 2015, dated 2019)
pIC50: −log10 of the molar value.

The compounds below were run against KHK-C (Homo sapiens (Human), UniProt P50053) (assay: Assay A: coupled-enzyme KHK absorbance assay, 10 nM KHK-C). Conditions: not given.
KHK-C, sequence (P50053 whole entry): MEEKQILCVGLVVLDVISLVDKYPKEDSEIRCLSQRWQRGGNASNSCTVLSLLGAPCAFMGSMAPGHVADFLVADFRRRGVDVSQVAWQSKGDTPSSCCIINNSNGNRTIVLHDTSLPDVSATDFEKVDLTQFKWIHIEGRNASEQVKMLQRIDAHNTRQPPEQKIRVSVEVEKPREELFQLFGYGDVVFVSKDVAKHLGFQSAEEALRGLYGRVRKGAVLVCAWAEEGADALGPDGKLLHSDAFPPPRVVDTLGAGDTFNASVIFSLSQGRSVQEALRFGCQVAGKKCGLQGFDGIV

With `COC(=O)C[C@@H]1[C@H]2CN(c3cc(C(F)(F)F)nc(N4CC[C@@H]4C)n3)C[C@@H]12` [Example 3, Methyl [(1R,5S,6R)-3-{2-[(2S)-2-methylazetidin-1-yl]-6-(trifluoromethyl)pyrimidin-4-yl}-3-azabicyclo[3.1.0]hex-6-yl]acetate] as the compound, how does the pIC50 read?
The pIC50 was 5.45.

How did the pIC50 turn out when `C[C@@H]1N(c2nc(N3C[C@@H]4[C@H](C3)[C@H]4CS(C)(=O)=O)cc(C(F)(F)F)n2)C[C@@]1(C)O` [Example 9, (2S,3R)-2,3-dimethyl-1-[4-{(1R,5S,6s)-6-[(methylsulfonyl)methyl]-3-azabicyclo[3.1.0]hex-3-yl}-6-(trifluoromethyl)pyrimidin-2-yl]azetidin-3-ol] was run?
The pIC50 was 4.84.

Same assay, conditions: read-out: IC50 (nM) Assay A 10 nM KHK-C; 10 nM KHK-C, 0.8 mM fructose, 0.2 mM ATP; avg of (#) runs

Which IC50 does the source give for `O=C(O)C[C@@H]1[C@H]2CN(c3cc(C(F)(F)F)nc(C4CCC4)n3)C[C@@H]12` [Example 6, {(1R,5S,6s)-3-[2-cyclobutyl-6-(trifluoromethyl)pyrimidin-4-yl]-3-azabicyclo[3.1.0]hex-6-yl}acetic acid] here?
Its IC50 is 170 nM.

How did the IC50 turn out when `C[C@H]1[C@H](O)CN1c1nc(N2C[C@@H]3[C@@H](CC(=O)O)[C@@H]3C2)c(C2CC2)c(C(F)(F)F)n1` [Example 7, [(1R,5S,6R)-3-{5-cyclopropyl-2-[(2S,3R)-3-hydroxy-2-methylazetidin-1-yl]-6-(trifluoromethyl)pyrimidin-4-yl}-3-azabicyclo[3.1.0]hex-6-yl]acetic acid] was run?
The IC50 was 111 nM.

For `CCc1c(N2C[C@@H]3[C@@H](CC(=O)O)[C@@H]3C2)nc(N2C[C@@H](O)[C@@H]2C)nc1C(F)(F)F` [Example 8, [(1R,5S,6R)-3-{5-ethyl-2-[(2S,3R)-3-hydroxy-2-methylazetidin-1-yl]-6-(trifluoromethyl)pyrimidin-4-yl}-3-azabicyclo[3.1.0]hex-6-yl]acetic acid], which IC50 is on record?
Its IC50 is 53.8 nM.

How did the IC50 turn out when `C[C@H]1CCN1c1nc(N2C[C@@H]3[C@@H](CC(=O)NS(C)(=O)=O)[C@@H]3C2)cc(C(F)(F)F)n1` [Example 10, 2-[(1R,5S,6R)-3-{2-[(2S)-2-methylazetidin-1-yl]-6-(trifluoromethyl)pyrimidin-4-yl}-3-azabicyclo[3.1.0]hex-6-yl]-N-(methylsulfonyl)acetamide] was run?
The IC50 was 682 nM.

For `C[C@H]1CCN1c1nc(N2C[C@@H]3[C@@H](Cc4nnn[nH]4)[C@@H]3C2)cc(C(F)(F)F)n1` [Example 11, (1R,5S,6R)-3-{2-[(2S)-2-methylazetidin-1-yl]-6-(trifluoromethyl)pyrimidin-4-yl}-6-(1H-tetrazol-5-ylmethyl)-3-azabicyclo[3.1.0]hexane], which IC50 is on record?
The IC50 was 866 nM.

How did the IC50 turn out when `C[C@H]1[C@H](O)CN1c1cc(N2C[C@@H]3[C@@H](CC(=O)O)[C@@H]3C2)c(Cl)c(C(C)(F)F)n1` [Example 12, [(1R,5S,6R)-3-{3-chloro-2-(1,1-difluoroethyl)-6-[(2S,3R)-3-hydroxy-2-methylazetidin-1-yl]pyridin-4-yl}-3-azabicyclo[3.1.0]hex-6-yl]acetic acid] was run?
Its IC50 is 289 nM.

How did the IC50 turn out when `COc1c(N2C[C@@H]3[C@@H](CC(=O)O)[C@@H]3C2)nc(N2C[C@@H](O)[C@@H]2C)nc1C(F)(F)F` [Example 13, [(1R,5S,6R)-3-{2-[(2S,3R)-3-hydroxy-2-methylazetidin-1-yl]-5-methoxy-6-(trifluoromethyl)pyrimidin-4-yl}-3-azabicyclo[3.1.0]hex-6-yl]acetic acid] was run?
Its IC50 is 33.9 nM.

Same assay, conditions: read-out: IC50 (nM) Assay A (Table 4); 10 nM KHK-C, 0.8 mM fructose, 0.2 mM ATP; avg of (#) runs

With `C[C@H]1[C@H](O)CN1c1nc(C(F)F)cc(N2C[C@@H]3[C@@H](CC(=O)O)[C@@H]3C2)n1` [Example 14, [(1R,5S,6R)-3-{6-(difluoromethyl)-2-[(2S,3R)-3-hydroxy-2-methylazetidin-1-yl]pyrimidin-4-yl}-3-azabicyclo[3.1.0]hex-6-yl]acetic acid] as the compound, how does the IC50 read?
The IC50 was 152 nM.

Which IC50 does the source give for `C[C@H]1[C@H](O)CN1c1nc(C(F)F)c(Cl)c(N2C[C@@H]3[C@@H](CC(=O)O)[C@@H]3C2)n1` [Example 15, [(1R,5S,6R)-3-{5-chloro-6-(difluoromethyl)-2-[(2S,3R)-3-hydroxy-2-methylazetidin-1-yl]pyrimidin-4-yl}-3-azabicyclo[3.1.0]hex-6-yl]acetic acid] here?
Its IC50 is 19.1 nM.

How did the IC50 turn out when `C[C@H]1[C@H](O)CN1c1nc(N2C[C@@H]3[C@@H](CC(=O)O)[C@@H]3C2)c(Cl)c(C(F)(F)F)n1` [Example 16, [(1R,5S,6R)-3-{5-chloro-2-[(2S,3R)-3-hydroxy-2-methylazetidin-1-yl]-6-(trifluoromethyl)pyrimidin-4-yl}-3-azabicyclo[3.1.0]hex-6-yl]acetic acid] was run?
Its IC50 is 6.4 nM.

Which IC50 does the source give for `C[C@H]1[C@H](O)CN1c1nc(N2C[C@@H]3[C@@H](CC(=O)O)[C@@H]3C2)cc(C(C)(F)F)n1` [Example 17, [(1R,5S,6R)-3-{6-(1,1-difluoroethyl)-2-[(2S,3R)-3-hydroxy-2-methylazetidin-1-yl]pyrimidin-4-yl}-3-azabicyclo[3.1.0]hex-6-yl]acetic acid] here?
Its IC50 is 131 nM.

Which IC50 does the source give for `C[C@H]1[C@H](O)CN1c1nc(N2C[C@@H]3[C@@H](CC(=O)O)[C@@H]3C2)c(Cl)c(C(C)(F)F)n1` [Example 18, [(1R,5S,6R)-3-{5-chloro-6-(1,1-difluoroethyl)-2-[(2S,3R)-3-hydroxy-2-methylazetidin-1-yl]pyrimidin-4-yl}-3-azabicyclo[3.1.0]hex-6-yl]acetic acid] here?
Its IC50 is 16.7 nM.

`C[C@H]1CCN1c1nc(N2C[C@@H]3[C@@H](CC(=O)O)[C@@H]3C2)cc(C(F)F)c1C#N` [Example 19, [(1R,5S,6R)-3-{5-cyano-4-(difluoromethyl)-6-[(2S)-2-methylazetidin-1-yl]pyridin-2-yl}-3-azabicyclo[3.1.0]hex-6-yl]acetic acid] was tested. Which IC50 did it give?
Its IC50 is 7.2 nM.

`Cc1c(C(F)F)nc(N2C[C@@H](O)[C@@H]2C)nc1N1C[C@@H]2[C@@H](CC(=O)O)[C@@H]2C1` [Example 20, [(1R,5S,6R)-3-{6-(difluoromethyl)-2-[(2S,3R)-3-hydroxy-2-methylazetidin-1-yl]-5-methylpyrimidin-4-yl}-3-azabicyclo[3.1.0]hex-6-yl]acetic acid] was tested. Which IC50 did it give?
Its IC50 is 33.4 nM.

With `C[C@@H]1N(c2nc(N3C[C@@H]4[C@@H](CC(=O)O)[C@@H]4C3)c(Cl)c(C(F)F)c2C#N)C[C@@]1(C)O` [Example 21, [(1R,5S,6R)-3-{3-chloro-5-cyano-4-(difluoromethyl)-6-[(2S,3R)-3-hydroxy-2,3-dimethylazetidin-1-yl]pyridin-2-yl}-3-azabicyclo[3.1.0]hex-6-yl]acetic acid] as the compound, how does the IC50 read?
The IC50 was 8.7 nM.

For `C[C@@H]1N(c2nc(N3C[C@@H]4[C@@H](CC(=O)O)[C@@H]4C3)cc(C(F)(F)F)n2)C[C@@]1(C)O` [Example 22, [(1R,5S,6R)-3-{2-[(2S,3R)-3-hydroxy-2,3-dimethylazetidin-1-yl]-6-(trifluoromethyl)pyrimidin-4-yl}-3-azabicyclo[3.1.0]hex-6-yl]acetic acid], which IC50 is on record?
The IC50 was 703 nM.

Which IC50 does the source give for `C[C@H]1C[C@H](O)CN1c1nc(N2C[C@@H]3[C@@H](CC(=O)O)[C@@H]3C2)cc(C(F)(F)F)c1C#N` [Example 23, [(1R,5S,6R)-3-{5-cyano-6-[(2S,4S)-4-hydroxy-2-methylpyrrolidin-1-yl]-4-(trifluoromethyl)pyridin-2-yl}-3-azabicyclo[3.1.0]hex-6-yl]acetic acid] here?
Its IC50 is 11.6 nM.

Which IC50 does the source give for `Cc1c(C(F)F)nc(N2C[C@@](C)(O)[C@@H]2C)nc1N1C[C@@H]2[C@@H](CC(=O)O)[C@@H]2C1` [Example 25, [(1R,5S,6R)-3-{6-(difluoromethyl)-2-[(2S,3R)-3-hydroxy-2,3-dimethylazetidin-1-yl]-5-methylpyrimidin-4-yl}-3-azabicyclo[3.1.0]hex-6-yl]acetic acid] here?
Its IC50 is 259 nM.
